In this experiment the test system is growth hormone release. Put plainly: suppression of growth hormone release in arginine stimulated rats (plasma GH by radioimmunoassay). It counts as in vivo. Particulars: Nembutal-anaesthetised albino male rats, blood 15 min after peptide. The protocol:
The potent inhibition of growth hormone secretion was established for the compounds of this invention by subjecting the representative product of Example 5 to the following standard procedure involving suppression of growth hormone release in arginine stimulated rats:
Albino male rats are administered Nembutal intraperitoneally at a dose of 50 milligrams per kilogram. Fifteen minutes later a subcutaneous injection of the product of Example 5 is administered. Ten minutes later 0.5 milliliters of arginine (300 milligrams per milliliter, pH 7.2) is injected into the heart. Five minutes after receipt of the arginine the rats are decapitated and blood is collected into Trasylol-EDTA. An appropriate aliquot is assayed for growth hormone (GH) by radioimmuno-assay. The results of the test procedure were compared with those obtained in the same manner with Compound 8 of Table 2 disclosed by Veber et al., loc. cit., as follows: […]

Square brackets hold non-standard residues; d marks the D form.

cyclo(PF[dW]KTF) [Compound 8]: the “Plasma GH Levels” value by setting is: (dose of peptide 0.1 μg/kg subcutaneous) 278 ± 89 ng/mL; (dose of peptide 1.0 μg/kg subcutaneous) 169 ± 19 ng/mL; (dose of peptide 10.0 μg/kg subcutaneous) 126 ± 6 ng/mL.
